Measured values reported in patent US6656936B1, “Carnitine analogues as topical, microbicidal spermicides” (Virginia Tech Intellectual Properties, Inc., priority 1999, dated 2003).
In brackets after ≈: the same amount, converted by molar mass.

Each molecule was assayed on human sperm (semen samples) (assay: Spermicidal activity in the Sander-Cramer test). Settings: Table 1; initial conc. 10 mg/ml in dH2O; n=10.
Assay type: cell-based
Protocol: Semen samples were collected from healthy human volunteers: only specimens with >60×10^6 motile sperm/mL and >50% motility were used. Two-fold serial dilutions of the compounds were prepared in 0.9% saline and incubated with semen samples for 20 seconds. Sperm were assessed under the microscope and positive dilutions (i.e. all observed sperm were immotile) were further incubated at 37° C. for 1 hour with 2 vol. of buffer, and re-examined for sperm motility. If no motile sperm were seen, the positive score was maintained. The Minimum Effective Concentration (MEC) for the compound was calculated using the highest sperm immobilizing dilution and its initial concentration.

| Molecule | Highest Spermicidal Dilution (1/X) | MEC (Minimum Effective Concentration) |
| --- | --- | --- |
| CCCCCCCCCCCC[C@@]1(O)C[N+](C)(C)C[C@@H](CC(=O)[O-])O1 [Compound Z-12] | 27.2 ± 2.3 1/X | 0.407 ± 0.7 mg/mL |
| CCCCCCCCCCCCC[C@@]1(O)C[N+](C)(C)C[C@@H](CC(=O)[O-])O1 [Compound Z-13] | 48.0 ± 5.1 1/X | 0.235 ± 0.025 mg/mL |
| Nonoxynol-9 [Compound N-9, reference compound] | 83.2 ± 18.2 1/X | 0.144 ± 0.011 mg/mL |

Same assay, conditions: Table 4; dH2O

| Molecule | MEC (Minimum Effective Concentration per Sander-Cramer assay) |
| --- | --- |
| Nonoxynol-9 [Compound N-9, reference compound] | 0.144 ± 0.011 mg/mL |

Same assay, conditions: Table 5

| Molecule | spermicidal activity, in words |
| --- | --- |
| CCCCCCCCCCCCCCCC1(O)C[N+](C)(C)CC(CC(=O)[O-])O1 (racemic) [(rac)-Z-15] | slightly more active than the two enantiomers and significantly more active than N-9 |

Same assay, conditions: Table 5; initial conc. 10 mg/ml in dH2O; n=10

| Molecule | Highest Spermicidal Dilution (1/X) | MEC |
| --- | --- | --- |
| CCCCCCCCCCCCCCCC1(O)C[N+](C)(C)CC(CC(=O)[O-])O1 (racemic) [(rac)-Z-15] | 115.2 ± 23.6 1/X | 0.117 ± 0.016 mg/mL |
| Nonoxynol-9 [Compound N-9, reference compound] | 33.6 ± 3.5 1/X | 0.329 ± 0.035 mg/mL |

Same assay, conditions: Table 6

| Molecule | spermicidal activity, in words |
| --- | --- |
| CCCCCCCCCCCCCCCC1(O)C[N+](C)(C)CC(CC(=O)[O-])O1 (racemic) [(rac)-Z-15] | activity equal to that of the R and S enantiomers |

Same assay, conditions: Table 6; initial conc. 10 mg/mL in dH2O; n=10

| Molecule | Highest Spermicidal Dilution (1/X) | MEC |
| --- | --- | --- |
| CCCCCCCCCCCCCCCC1(O)C[N+](C)(C)CC(CC(=O)[O-])O1 (racemic) [(rac)-Z-15] | 108.80 ± 19.20 1/X | 0.113 mg/mL |
| Nonoxynol-9 [Compound N-9, reference compound] | 73.6 ± 8.4 1/X | 0.156 mg/mL |

Each molecule was assayed on Candida albicans (assay: Inhibition of growth of Candida albicans (MIC)). Settings: C. albicans, 4 days at 28° C.
Assay type: cell-based
Protocol: The Minimum Inhibitory Concentrations (MICs) of Z-10-Z-15 were measured by determining the inhibition of growth of C. albicans in a solution of mineral salts plus yeast extract (See Standard Practice for Determining Resistance of Synthetic Polymeric Material to Fungi. American Society for Testing and Materials (ASTM) Standards on Materials and Environmental Microbiology, 1st Ed., 1987), and amended with glucose (10 g/L) and yeast extract (1 g/L). An aliquot (250 μl) of sterile medium was dispensed into each well of a 96-well microplate. Stock solutions were prepared by dissolving test compounds in 50% (v/v) aqueous dimethylsulfoxide (DMSO). Each well (plus controls) was then inoculated with 5 μl of a suspension of C. albicans. The suspension was then adjusted to provide OD686=0.28. This density contains ca. 2.5×10^7 colony forming units (CFU)^2/mL. The microplates were incubated in the dark for 4 days at 28° C.

| Molecule | MIC |
| --- | --- |
| CCCCCCCCCCCC[C@@]1(O)C[N+](C)(C)C[C@@H](CC(=O)[O-])O1 [Compound Z-12] | 80 to 100 µg/mL |
| CCCCCCCCCCCCC[C@@]1(O)C[N+](C)(C)C[C@@H](CC(=O)[O-])O1 [Compound Z-13] | 40 µg/mL (≈ 108 µM) |

Each molecule was assayed on HIV-1 (RF strain) (assay: In vitro anti-HIV cell-free inactivation assay). Settings: 0.032 mg/mL, 2 minutes exposure.
Assay type: cell-based
Protocol: The assay for in vitro anti-HIV activity followed the previously described procedure (Resnick et al., 1990). An infectious suspension of HIV-1 (RF strain, NIH 1983) was exposed to the compounds for 2 minutes. Immediately after, the mixture was 10-fold serially diluted with medium to terminate compound effect, and the dilutions were incubated with MT-2 target cells at 37° C. The cells were maintained in growth medium at 37° C. for 6 days. HIV-induced cytopathology (syncytium formation) was assessed on day 6 after infection, as was cell viability.

| Molecule | reduction of infective viral titer |
| --- | --- |
| CCCCCCCCCCCC[C@@]1(O)C[N+](C)(C)C[C@@H](CC(=O)[O-])O1 [Compound Z-12] | 0.0 log units |
| CCCCCCCCCCCCC[C@@]1(O)C[N+](C)(C)C[C@@H](CC(=O)[O-])O1 [Compound Z-13] | 0.5 log units |
| Nonoxynol-9 [Compound N-9, reference compound] | 0.5 log units |

Same assay, conditions: 0.1 mg/mL, 2 minutes exposure

| Molecule | reduction of infective viral titer |
| --- | --- |
| CCCCCCCCCCCC[C@@]1(O)C[N+](C)(C)C[C@@H](CC(=O)[O-])O1 [Compound Z-12] | 0.3 log units |
| CCCCCCCCCCCCC[C@@]1(O)C[N+](C)(C)C[C@@H](CC(=O)[O-])O1 [Compound Z-13] | 1.5 log units |
| Nonoxynol-9 [Compound N-9, reference compound] | 2.2 log units |

Same assay, conditions: 0.32 mg/mL, 2 minutes exposure

| Molecule | reduction of infective viral titer |
| --- | --- |
| CCCCCCCCCCCC[C@@]1(O)C[N+](C)(C)C[C@@H](CC(=O)[O-])O1 [Compound Z-12] | 2.0 log units |
| CCCCCCCCCCCCC[C@@]1(O)C[N+](C)(C)C[C@@H](CC(=O)[O-])O1 [Compound Z-13] | 2.7 log units |
| Nonoxynol-9 [Compound N-9, reference compound] | 3.5 log units |

Same assay, conditions: 1 mg/mL, 2 minutes exposure

| Molecule | reduction of infective viral titer |
| --- | --- |
| CCCCCCCCCCCC[C@@]1(O)C[N+](C)(C)C[C@@H](CC(=O)[O-])O1 [Compound Z-12] | 2.8 log units |
| CCCCCCCCCCCCC[C@@]1(O)C[N+](C)(C)C[C@@H](CC(=O)[O-])O1 [Compound Z-13] | 3.3 log units |
| Nonoxynol-9 [Compound N-9, reference compound] | ≧4.0^ log units |

Same assay, conditions: 3.2 mg/mL, 2 minutes exposure

| Molecule | reduction of infective viral titer |
| --- | --- |
| CCCCCCCCCCCC[C@@]1(O)C[N+](C)(C)C[C@@H](CC(=O)[O-])O1 [Compound Z-12] | ≧3.5 log units |
| CCCCCCCCCCCCC[C@@]1(O)C[N+](C)(C)C[C@@H](CC(=O)[O-])O1 [Compound Z-13] | 3.5 log units |

Same assay, conditions: 10 mg/mL, 2 minutes exposure

| Molecule | reduction of infective viral titer |
| --- | --- |
| CCCCCCCCCCCC[C@@]1(O)C[N+](C)(C)C[C@@H](CC(=O)[O-])O1 [Compound Z-12] | ≧4.0^ log units |
| CCCCCCCCCCCCC[C@@]1(O)C[N+](C)(C)C[C@@H](CC(=O)[O-])O1 [Compound Z-13] | 3.5 log units |

Same assay, conditions: Table 2

| Molecule | anti-HIV activity, in words |
| --- | --- |
| Nonoxynol-9 [Compound N-9, reference compound] | slightly more active than these compounds |

Each molecule was assayed on sperm penetration in bovine cervical mucus (assay: Cervical mucus biodiffusion, Double-End test). Settings: testing concentration ten fold MEC; 60 minutes incubation; n=12.
Protocol: The cervical mucus Biodiffusion properties of (R)Z-14 and (R)-Z-15 analogues were tested in comparison to that of N-9 using the Double-End test (Doncel. 1994). In this test, compound solutions (in 0.9% saline) were incubated for 60 minutes with a 7 cm capillary tube containing bovine cervical mucus (Penetrak®, Biochem Immuno System, Norwell, Mass.) opened at one end. After such incubation, the tubes' open end, which had been in contact with the compound, was sealed. Subsequently, the tubes were cut open at 20 mm from the initial opening, inverted, and immersed in semen so as to allow sperm penetration in an opposite direction to that of the compound diffusion. Sperm cease penetration when they encounter a bioactive concentration of the test compound. Thus, the lower the sperm penetration, the greater the compound's biodiffusion. In addition, the spermicidal activity of the analogues was tested again.

| Molecule | DET % control (test sperm penetration compared to control) |
| --- | --- |
| Nonoxynol-9 [Compound N-9, reference compound] | 17.5 ± 0.7 % control |
